Columns and labels:
[1] = Fluorescence excitation and emission spectrum of the dyes; type: physicochemical; settings: for Em / emission max / Ex Peak / excitation max: solvent not given
live and dead cells = experiment: Cell viability detection with amine reactive viability dye by flow cytometry; type: cell-based; settings: mix of live and dead cells
Experimental: Pipet 100 uL of prepared cells in biological buffer or media in a reaction vessel such as a tube or microwell plate. Add 100 uL of working solution to 100 uL cell sample; mix well and incubate at the room temperature for 15 minutes. Remove supernatant without disturbing the pellet. Wash the cells with PBS with bovine serum albumin (BSA) (range 0.2-10%) per well; centrifuge plate at 1000 rpm for 5 minutes; remove the supernatant by aspiration without disturbing the cell pellet.
Cells were killed by heat or treated with diamide or staurosporine inducers.

painted cells = experiment: Cell painting applications; type: cell-based

Structure (SMILES)	Em ([1]; in Methanol) [nm]	Ex ([1]; in Methanol) [nm]	Em / emission max [1] [nm]	Ex Peak / excitation max [1] [nm]	separation of live and dead cells (live and dead cells)	absorption max ([1]; in Methanol) [nm]	utility for labeling and painting cells (painted cells)	retention of dye in painted cells (painted cells; 3 h time period)	localization of dye (painted cells; microscopy)
O=C(O)Cc1ccc(CN2/C(=C/C=C/c3oc4ccccc4[n+]3Cc3ccc(CC(=O)O)cc3)Oc3ccccc32)cc1.[Br-] [Compound No. 9]	507	489	507	489	–	–	–	–	–
O=C(Cc1ccc(CN2/C(=C/C=C/c3oc4ccccc4[n+]3Cc3ccc(CC(=O)ON4C(=O)CCC4=O)cc3)Oc3ccccc32)cc1)ON1C(=O)CCC1=O.[Br-] [Compound No. 10]	508	490	507	489	–	–	–	–	–
CC(C(=O)O)c1ccc(C[N+]2=C(/C=C/C=C3\Oc4ccccc4N3Cc3ccc(CC(=O)O)cc3)C(C)(C)c3cc(S(=O)(=O)[O-])ccc32)cc1 (stereo not drawn) [Compound No. 11]	541	510	542	510	–	–	–	–	–
CC(C(=O)ON1C(=O)CCC1=O)c1ccc(C[N+]2=C(/C=C/C=C3\Oc4ccccc4N3Cc3ccc(CC(=O)ON4C(=O)CCC4=O)cc3)C(C)(C)c3cc(S(=O)(=O)[O-])ccc32)cc1 (stereo not drawn) [Compound No. 12]	541	510	541	510	excellent separation of live and dead cells	–	–	–	–
CC1(C)C(/C=C/C=C/C=C2\Oc3ccccc3N2Cc2ccc(CC(=O)ON3C(=O)CCC3=O)cc2)=[N+](Cc2ccc(CC(=O)ON3C(=O)CCC3=O)cc2)c2ccc(S(=O)(=O)[O-])cc21 [Compound No. 14]	642	609	642	609	can clearly distinguish live (low fluorescence) and dead cells (high fluorescence)	609	–	–	–
CC1(C)C(/C=C/C=C/C=C2/N(Cc3ccc(CC(=O)O)cc3)c3ccccc3C2(C)C)=[N+](Cc2ccc(CC(=O)O)cc2)c2ccccc21.[Br-] [Compound No. 16]	679	650	642	609	–	–	–	–	–
Cc1ccc(CN2/C(=C/C=C/C3=[N+](Cc4ccc(C)cc4)c4ccccc4C3(C)C)C(C)(C)c3ccccc32)cc1.[Br-] [Compound No. 18]	574	551	574	551	–	–	good utility for painting cells	–	–
Cc1ccc(CN2/C(=C/C=C/C=C/C3=[N+](Cc4ccc(C)cc4)c4ccccc4C3(C)C)C(C)(C)c3ccccc32)cc1.[Br-] [Compound No. 19]	674	650	674	650	–	–	good utility for labeling and painting cells	good retention of dye	localized intracellularly

— patent US20120088262A1, “CYANINE COMPOUNDS, CONJUGATES AND METHOD OF USE” (Millipore Corporation, priority 2010, published 2012)
